Laboratory results from ChEMBL document CHEMBL1154206, “Bioactive iridoid glucosides from the fruit of Gardenia jasminoides” (J Nat Prod, 2009).
Calls of active or inactive are those of the source. No cut-off for these calls is given here.

What follows are molecules tested on Drosophila (assay: Short term memory enhancement in human Abeta42 transgenic Drosophila alzheimers disease model dosed for 6 days by pavlovian olfactory learning assay after 8 days).
Type: functional, organism-based

| SMILES | Activity |
| --- | --- |
| COC(=O)C1=CO[C@@H](O[C@@H]2O[C@H](CO)[C@@H](O)[C@H](O)[C@H]2O)[C@@H]2C(CO)=CC[C@H]12 | Active |
| COC(=O)C1=CO[C@@H](O[C@@H]2O[C@H](COC(C)=O)[C@@H](O)[C@H](O)[C@H]2O)[C@@H]2C(CO)=CC[C@H]12 | Active |
| COC(=O)C1=CO[C@@H](O[C@@H]2O[C@H](COC(=O)/C=C/c3ccc(O)cc3)[C@@H](O)[C@H](O)[C@H]2O)[C@@H]2C(CO)=CC[C@H]12 | Active |
| COC(=O)C1=CO[C@@H](O[C@@H]2O[C@H](CO)[C@@H](O)[C@H](O)[C@H]2O)[C@@H]2C(COC(C)=O)=CC[C@H]12 | Active |
| COc1cc(/C=C/C(=O)OC[C@H]2O[C@@H](OC[C@H]3C(=O)OC[C@@H]4C(CO)=CC[C@@H]43)[C@H](O)[C@@H](O)[C@@H]2O)cc(OC)c1O | Active |
| COC(=O)C1=CO[C@@H](O[C@@H]2O[C@H](CO)[C@@H](O)[C@H](O)[C@H]2O)[C@@H]2C(COC(=O)CCC(=O)O)=CC[C@H]12 | Active |
| COC(=O)C1=CO[C@@H](O[C@@H]2O[C@H](COC(=O)/C=C/c3cc(OC)c(O)c(OC)c3)[C@@H](O)[C@H](O)[C@H]2O)[C@@H]2C(CO)=CC[C@H]12 | Active |
| COc1cc(/C=C/C(=O)OC[C@H]2O[C@@H](OCC3=CC[C@H]4[C@@H]3COC(=O)[C@@H]4CO)[C@H](O)[C@@H](O)[C@@H]2O)cc(OC)c1O | Active |
